In PubChem BioAssay (NCI):
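Tested at 5 concentrations; 48 h exposure; 96-well plates; endpoints linearly interpolated, else capped at highest concentration. At the GI50, growth is halved. TGI denotes the concentration required for complete inhibition of growth.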 Peptide text beside a SMILES is read from it. * marks the point of attachment. OSu = O=C1CCC(=O)N1O*; OBn = c1ccc(CO*)cc1; Bn = c1ccc(C*)cc1

What was measured:
Test in all cases: NCI anticancer screen, dose series, 48 h
SW-620 colon = tested on: SW-620 colon
K-562 leukemia = tested on: K-562 leukemia
LOX IMVI melanoma = tested on: LOX IMVI melanoma
OVCAR-8 ovarian = tested on: OVCAR-8 ovarian
HCT-15 colon = tested on: HCT-15 colon
MOLT-4 leukemia = tested on: MOLT-4 leukemia
A549 NSCLC = tested on: A549 NSCLC
CAKI-1 renal = tested on: CAKI-1 renal
SK-MEL-5 melanoma = tested on: SK-MEL-5 melanoma
RPMI-8226 leukemia = tested on: RPMI-8226 leukemia

SMILES	TGI (SW-620 colon) [µM]	TGI (K-562 leukemia) [µM]	TGI (LOX IMVI melanoma) [µM]	TGI (OVCAR-8 ovarian) [µM]	TGI (HCT-15 colon) [µM]	TGI (MOLT-4 leukemia) [µM]	TGI (A549 NSCLC) [µM]	TGI (CAKI-1 renal) [µM]	TGI (SK-MEL-5 melanoma) [µM]	TGI (RPMI-8226 leukemia) [µM]	GI50 (SW-620 colon) [µM]	GI50 (K-562 leukemia) [µM]	GI50 (LOX IMVI melanoma) [µM]	GI50 (RPMI-8226 leukemia) [µM]	GI50 (HCT-15 colon) [µM]	GI50 (A549 NSCLC) [µM]	GI50 (CAKI-1 renal) [µM]	GI50 (SK-MEL-5 melanoma) [µM]
O=C(NC(CO)CO)c1ccc2cc(C(=O)N3CC(CCl)c4ccc([N+](=O)[O-])cc43)[nH]c2c1 (stereo not given)	> 100	> 100	> 100	> 100	> 100	> 100	> 100	> 100	> 100									
c1cn[nH]c1	> 10	> 10	> 10	> 10	> 10	> 10	> 10		> 10	> 10								
Clc1ccc(-c2nn3c(C45CC6CC(CC(C6)C4)C5)nnc3s2)cc1	> 100	> 100	> 100		> 100	> 100	> 100	> 100	> 100	> 100								
COc1ccc(/C=C/C(c2cc(OC)c(OC)c(OC)c2)n2cncn2)cc1O (stereo not given)	> 100	> 100	> 100		> 100		> 100	> 100	35.4	42.2	0.0394	0.032	0.0511	0.037	0.0508	4.56	2.83	0.0458
N#CI1OC(C(F)(F)F)(C(F)(F)F)c2ccccc21		> 100	43.3	30.5	32.6		> 100	28	33.8	> 100								
Clc1cccc(N=C/C=C/Nc2cccc(Cl)c2)c1	43.9		20.6	38.9	37.7	73.2	83.9	65.1	44	> 100								
Cc1ccc(Nc2ccc(Nc3ccc(C)cc3S(=O)(=O)O)c3c2C(=O)c2ccccc2C3=O)c(S(=O)(=O)O)c1	> 100	> 100		> 100	> 100	> 100	> 100	> 100	> 100	> 100								
COc1cc(C2C3=C(N=C4SC(C(C)=O)=C(C)N42)c2ccccc2CC3)cc(OC)c1OC (stereo not given)	> 100	85.2	> 100	> 100			> 100		> 100	93.4								
CCCN(CCC)c1c([N+](=O)[O-])cc(C(=O)N(C)C)cc1[N+](=O)[O-]		> 100		> 100	> 100	> 100	> 100	> 100	28.9	> 100								
Cc1[nH]c(=O)[nH]c(=O)c1C(=O)N(CCO)Cc1ccccc1	> 100	> 100	> 100		> 100	> 100				> 100								
O=C1CC(Cl)c2c(Cl)sc(Cl)c21 (stereo not given)	3.61	> 100	3.15	3.32	5.07	2.37	12.7	3.18	26.2									
Oc1ccccc1C=Nc1ccccc1N=Cc1ccccc1O	> 100	> 100	> 100	> 100	> 100	> 100	> 100		> 100	> 100								
CC(CN(C)C)C(=O)/C=C/c1ccc(Cl)c(Cl)c1 (stereo not given)	8.42	> 100	2.99	2.85		> 100	13.8	4.42	2.99	> 100								
CC1(CO)C(=O)OC12CCCCC2 (stereo not given)	> 100	> 100	> 100	> 100		> 100	> 100	> 100		> 100								
CC(C)CC(NC(=O)C(N)CCC(=O)OCc1ccccc1)C(=O)NC(COCc1ccccc1)C(=O)NC(Cc1ccccc1)C(=O)ON1C(=O)CCC1=O (stereo not given) (H-E(OBn)LS(Bn)F-OSu; configuration not given here)	> 100		50.7	> 100		62.8	> 100	64	35.8	61.4								
COC(=O)C(N)CCCC(N)C(=O)NC(C)C(=O)NC(CCC(=O)NCCCNc1ccc([N+](=O)[O-])c2[nH]c3ccccc3c(=O)c12)C(N)=O (stereo not given)	14.7	22.6	13	13.9	15		12.3	19.8	23.9	14								
CC(C)(CN1CCCCC1)C(=O)/C=C/c1c(Cl)cccc1Cl	2.29		2.68	9.21	2.28		5.51	2.78	2.92									
Cc1cnc2[nH]c(-c3cccc(Cl)c3)cc(=O)c2c1	> 100		11.6	> 100	> 100		> 100	59.7	16									
c1ccc(-c2nc3ccccc3n3nnnc23)cc1	> 100	> 100	> 100		> 100	> 100	> 100		> 100	> 100								
c1ccc2nn(C3CCCCO3)nc2c1 (stereo not given)		> 100		> 100	> 100	> 100	> 100	> 100	> 100									
O=Cc1cc(O)c(O)c(/C=N/n2c3ccccc3c3ccccc32)c1	44.7	26.7	> 100	18.7	19.4	12.5	> 100	36.6		6.49								
O=C1C=C(NCCc2cc(Br)c(O)c(Br)c2)C(=O)c2[nH]cnc21	> 100	> 100	> 100	> 100	> 100		> 100	> 100	29									
O=C1C(CN2CCCC2)CCCC1CN1CCCC1 (stereo not given)	0.32	2.27	6.26	10.5	4.54		39.3	3.11	30.4	3.97								
O=C(CCC(=O)OCC1OC(O)(CC2OC(CO)C(O)C(O)C2O)C(O)C1O)OCc1ccccc1 (stereo not given)	> 100	> 100	> 100	> 100	> 100		> 100	> 100	> 100									
